Among the data in ChEMBL document CHEMBL5212743, “Selectivity Literature for EUbOPEN Chemogenomics Library wave 3” (2023) are % of control values, retold here.

Assay [1] has as its target Serine/threonine-protein kinase ULK1 (Homo sapiens) (UniProt O75385). In words: Selectivity interaction (KinomeScan (DiscoverX)) EUB0000702a ULK1. Conditions: at 1 µM.
Assay [2] has as its system T1, Receptor-type tyrosine-protein kinase FLT3 (Homo sapiens), P36888 [D835Y].
T1 sequence (whole entry): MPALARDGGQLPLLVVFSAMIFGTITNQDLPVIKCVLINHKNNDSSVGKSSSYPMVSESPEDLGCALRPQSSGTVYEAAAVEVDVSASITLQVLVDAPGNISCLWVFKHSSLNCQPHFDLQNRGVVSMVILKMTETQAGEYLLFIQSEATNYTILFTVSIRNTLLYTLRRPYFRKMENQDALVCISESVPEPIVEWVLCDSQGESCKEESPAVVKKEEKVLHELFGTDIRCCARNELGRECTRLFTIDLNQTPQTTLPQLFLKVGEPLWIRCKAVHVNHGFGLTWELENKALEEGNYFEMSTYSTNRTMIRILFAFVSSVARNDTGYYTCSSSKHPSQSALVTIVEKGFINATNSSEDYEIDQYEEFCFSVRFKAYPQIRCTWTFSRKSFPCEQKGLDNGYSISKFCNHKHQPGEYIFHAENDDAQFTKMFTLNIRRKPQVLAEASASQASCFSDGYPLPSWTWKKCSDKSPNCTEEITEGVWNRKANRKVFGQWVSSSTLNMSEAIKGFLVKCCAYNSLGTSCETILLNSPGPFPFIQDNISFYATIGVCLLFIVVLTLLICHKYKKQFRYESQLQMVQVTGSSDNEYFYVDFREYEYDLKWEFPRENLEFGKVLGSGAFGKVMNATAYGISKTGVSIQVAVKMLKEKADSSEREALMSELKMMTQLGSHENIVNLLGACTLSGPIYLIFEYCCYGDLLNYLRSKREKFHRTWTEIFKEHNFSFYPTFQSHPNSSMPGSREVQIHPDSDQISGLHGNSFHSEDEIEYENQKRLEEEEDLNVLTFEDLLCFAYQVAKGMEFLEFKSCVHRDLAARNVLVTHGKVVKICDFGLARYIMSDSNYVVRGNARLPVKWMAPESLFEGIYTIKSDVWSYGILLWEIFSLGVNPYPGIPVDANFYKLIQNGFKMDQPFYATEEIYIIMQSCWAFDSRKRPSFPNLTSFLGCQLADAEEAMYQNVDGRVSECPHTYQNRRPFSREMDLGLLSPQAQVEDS
Briefly: (§1) Selectivity interaction (KinomeScan (DiscoverX)) EUB0000702a FLT3. As to conditions: at 1 µM.

Assay [3] relates to T2, Receptor-type tyrosine-protein kinase FLT3 (Homo sapiens), P36888 [D835V].
T2 sequence (whole entry): T1 sequence (whole entry) with Y835V
The assay is described as §1. Conditions: at 1 µM.

In assay [4] the target is T3, Homeodomain-interacting protein kinase 4 (Homo sapiens) (UniProt Q8NE63).
T3 sequence (whole entry): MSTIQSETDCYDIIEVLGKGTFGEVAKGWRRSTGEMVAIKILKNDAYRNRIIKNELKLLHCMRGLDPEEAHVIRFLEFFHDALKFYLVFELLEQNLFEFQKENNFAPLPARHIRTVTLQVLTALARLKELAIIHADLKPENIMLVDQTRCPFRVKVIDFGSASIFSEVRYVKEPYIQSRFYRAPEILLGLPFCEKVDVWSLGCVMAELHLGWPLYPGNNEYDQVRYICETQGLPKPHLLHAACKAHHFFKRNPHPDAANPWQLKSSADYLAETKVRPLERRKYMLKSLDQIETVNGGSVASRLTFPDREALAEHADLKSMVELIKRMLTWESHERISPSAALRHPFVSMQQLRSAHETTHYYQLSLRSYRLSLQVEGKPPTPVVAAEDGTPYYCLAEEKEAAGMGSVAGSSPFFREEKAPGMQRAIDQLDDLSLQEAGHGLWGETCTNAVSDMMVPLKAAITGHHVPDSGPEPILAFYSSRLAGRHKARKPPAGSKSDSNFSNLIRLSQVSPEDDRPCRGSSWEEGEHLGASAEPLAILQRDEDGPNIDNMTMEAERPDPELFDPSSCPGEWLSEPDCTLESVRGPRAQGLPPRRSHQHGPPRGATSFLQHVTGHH
As to conditions: at 1 µM.

In assay [5] the target is cAMP-dependent protein kinase catalytic subunit alpha (Homo sapiens, UniProt P17612). In words: Selectivity interaction (Kinase panel (University of Dundee)) EUB0000169b PRKACA. Conditions: at 10 µM.
In assay [6] the target is Casein kinase II subunit alpha (Homo sapiens, UniProt P68400). In words: Selectivity interaction (Kinase panel (University of Dundee)) EUB0000169b CSNK2A1. As to conditions: at 10 µM.
Assay [7] concerns T1, Receptor-type tyrosine-protein kinase FLT3 (Homo sapiens), P36888 [D835Y]. Briefly: (§2) Selectivity interaction (KinomeScan (DiscoverX)) EUB0000138c FLT3. Conditions: at 100 nM.
Assay [8] deals with Receptor-type tyrosine-protein kinase FLT3 (Homo sapiens), P36888 [UNDEFINED MUTATION]. Described as §2. Conditions: at 100 nM.
The subject of assay [9] is T2, Receptor-type tyrosine-protein kinase FLT3 (Homo sapiens), P36888 [D835V]. Described as §2. Conditions: at 100 nM.

Substitutions are numbered along the chain they refer to.

Casein kinase II subunit alpha, sequence (P68400 whole entry, looked up): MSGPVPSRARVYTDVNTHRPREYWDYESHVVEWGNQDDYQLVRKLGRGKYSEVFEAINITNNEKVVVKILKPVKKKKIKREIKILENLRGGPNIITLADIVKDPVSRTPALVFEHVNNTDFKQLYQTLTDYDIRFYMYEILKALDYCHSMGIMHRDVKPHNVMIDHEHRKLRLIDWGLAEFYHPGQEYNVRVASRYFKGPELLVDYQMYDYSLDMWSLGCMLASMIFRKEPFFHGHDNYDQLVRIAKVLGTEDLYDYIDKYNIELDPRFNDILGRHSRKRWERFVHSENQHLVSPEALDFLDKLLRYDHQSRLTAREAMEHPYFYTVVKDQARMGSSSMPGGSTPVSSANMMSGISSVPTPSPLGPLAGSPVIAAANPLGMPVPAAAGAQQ
Serine/threonine-protein kinase ULK1 (Homo sapiens), sequence (O75385 whole entry): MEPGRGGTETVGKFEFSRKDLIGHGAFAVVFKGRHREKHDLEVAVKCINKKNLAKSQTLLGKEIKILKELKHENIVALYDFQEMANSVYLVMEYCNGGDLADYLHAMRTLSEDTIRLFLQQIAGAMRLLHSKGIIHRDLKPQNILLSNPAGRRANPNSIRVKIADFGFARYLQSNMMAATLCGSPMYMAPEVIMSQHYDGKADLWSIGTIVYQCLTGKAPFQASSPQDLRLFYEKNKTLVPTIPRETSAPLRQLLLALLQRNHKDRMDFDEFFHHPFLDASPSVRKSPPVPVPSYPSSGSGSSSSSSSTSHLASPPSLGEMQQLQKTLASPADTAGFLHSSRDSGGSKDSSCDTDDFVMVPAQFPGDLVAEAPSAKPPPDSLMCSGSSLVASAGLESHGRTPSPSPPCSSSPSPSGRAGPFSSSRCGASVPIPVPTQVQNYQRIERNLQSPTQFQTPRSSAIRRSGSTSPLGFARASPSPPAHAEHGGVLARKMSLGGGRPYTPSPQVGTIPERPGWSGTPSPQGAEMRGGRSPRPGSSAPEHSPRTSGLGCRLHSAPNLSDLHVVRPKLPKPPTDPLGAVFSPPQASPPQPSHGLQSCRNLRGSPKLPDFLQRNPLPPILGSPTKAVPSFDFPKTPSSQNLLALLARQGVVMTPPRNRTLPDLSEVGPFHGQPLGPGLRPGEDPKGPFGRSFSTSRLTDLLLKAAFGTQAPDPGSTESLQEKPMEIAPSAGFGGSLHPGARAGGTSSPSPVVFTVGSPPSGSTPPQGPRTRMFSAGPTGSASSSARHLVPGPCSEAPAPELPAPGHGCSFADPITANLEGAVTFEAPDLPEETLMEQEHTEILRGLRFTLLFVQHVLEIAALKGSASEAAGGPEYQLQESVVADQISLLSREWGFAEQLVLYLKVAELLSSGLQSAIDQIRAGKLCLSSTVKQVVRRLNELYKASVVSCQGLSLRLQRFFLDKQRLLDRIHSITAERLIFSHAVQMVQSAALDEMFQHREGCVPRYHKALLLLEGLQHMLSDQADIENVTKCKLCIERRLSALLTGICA

For `CN(c1ccnc(CNc2nc(Nc3ccc4c(c3)CC(=O)N4)ncc2C(F)(F)F)n1)S(C)(=O)=O` [PF-00911705], the results for the % of control in [1], in [2] and in assay [3] were 1.2%, 2% and 1.5%, respectively.

In the case of `CCOc1cn(-c2ccc(F)cc2C)nc1C(=O)Nc1ccc(Oc2ccnc3cc(OC)c(OC)cc23)c(F)c1`, the % of control in assay [4] is below 10%.

In the case of `CC[C@@H]1C(=O)N(C)c2cnc(Nc3ccc(C(=O)NC4CCN(C)CC4)cc3OC)nc2N1C1CCCC1`, the % of control in [5] is 100%; in [6], 103%.

Consider `CNC(=O)c1ccc(Nc2ncc(C(F)(F)F)c(NCc3nccnc3N(C)S(C)(=O)=O)n2)cc1` [DEFACTINIB], for which the figures for the % of control in assay [7], in assay [8] and in assay [9] were 5.9%, 9% and 0.2%, respectively.
